# Experimental data from patent US20240307345A1, “R-MDMA and S-MDMA TO ASSIST PSYCHOTHERAPY” (Universitatsspital Basel, priority 2022, published 2024).
# Entries after “also recorded” stand apart in the source; their conditions may differ.
# How the values were obtained:
# [1] = human; after administration of racemic MDMA; compared to R-MDA; cited from earlier work
# [2] = test system: healthy subjects; assay: Acute subjective effects on the Visual Analog Scale (VAS); type: in vivo, human; conditions: 125 mg; compared with both R-MDMA doses and placebo
# Description: (§1) Study design: The present study compares the acute subjective, physiological and endocrine effects of S-MDMA (125 mg), R-MDMA (125 and 250 mg), MDMA (125 mg) using a placebo-controlled double-blind 5-period cross-over design in 24 healthy subjects. Conditions are 1.) R-MDMA 125 mg, 2). R-MDMA 250 mg, 3) S-MDMA 125 mg, 4) MDMA 125 mg, 5) placebo. Treatment order is counterbalanced. Washout periods between substance administrations are at least 10 days. Study days include a 10-hour study session with a subsequent single measurement (short visit) the next morning (24 hours after drug administration).
# Study procedures: The study takes place at the University Hospital Basel. Each of the test sessions last from 8:00 until 18:00 with a short visit the next morning (24 hours after application). An indwelling intravenous catheter is inserted into a subcutaneous vein of the forearm and baseline psychometric measures are obtained. Administration of the substance is at 9:00. Outcome measures (see below) are repeatedly assessed during the study session. Subjects are under continuous medical supervision until any alterations of consciousness have completely subsided and they leave the research facility.
# Psychometric assessments: Visual Analog Scale (VAS): VASs is repeatedly used to assess subjective alterations in consciousness over time. Single scales are presented as 100 mm horizontal lines marked with “not at all” on the left and “extremely” on the right. The following VAS items are used: “any drug effect”, “good drug effect”, “bad drug effect”, “stimulated”, “liking”, “happy”, “content”, “talkative”, “open”, “trust”, “feeling close to others”, “anxiety”, “alteration of vision”, “alterations of hearing”, “sounds seem to influence what I see”, “alteration of sense of time”, “the boundaries between myself and my surroundings seem to blur”, “want to be with other people”, and “want to be alone”. Scales are administered before and repeatedly after substance administration and take approximately 2 minutes to fill out. The maximal ratings (Emax, 0-100) and areas under the effect-time curve (AUEC) are defined for each VAS and Emax and AUEC values compared between treatments using analysis of variance. 5-Dimensions of Altered States of Consciousness (5D-ASC): The 5 Dimensions of Altered States of Consciousness (5D-ASC) Scale is a questionnaire containing visual analog scales for 94 items (Studerus et al., 2010). The instrument contains five scales assessing mood, anxiety, derealization, depersonalization, changes in perception, auditory alterations, and reduced vigilance. The scale is well-validated (Studerus et al., 2010) and used internationally to evaluate effects of many other psychoactive substances. The overall psychedelic experience is reflected by the total […] score. Each item of the scale is scored on a 0-100 mm VAS. The attribution of the individual items to the subscales of the 5D-ASC is analyzed according to (Studerus et al., 2010). The 5D-ASC scale is administered once at the end of the session and subjects are instructed to retrospectively rate peak alterations that have been experienced during the study session. Adiective Mood Rating Scale (AMRS): The Adjective Mood Rating Scale (AMRS or EWL60S) is a 60-item Likert scale that allows repeated assessment of mood in 6 dimensions: Activation, inactivation, well-being, anxiety/depressed mood, extra- and introversion, and emotional excitability. The German EWL60S version is used. The AMRS consists of subscales measuring “activation,” “positive mood,” “extraversion,” “introversion,” “inactivation,” and “emotional excitability. The scale has previously been used to evaluate effects of many other psychoactive substances. Emax and AUEC scores will be defined for each subscale and compared between treatments using analysis of variance. The AMRS is administered repeatedly throughout the study session and once 3 days after each session. […]
# [3] = test system: healthy subjects; assay: Alteration of mind and mystical-type effects on 5D-ASC and MEQ questionnaires; type: in vivo, human; conditions: 125 mg
# Description: as §1
# (§2) Psychometric assessments: Visual Analog Scale (VAS): VASs is repeatedly used to assess subjective alterations in consciousness over time. Single scales are presented as 100 mm horizontal lines marked with “not at all” on the left and “extremely” on the right. The following VAS items are used: “any drug effect”, “good drug effect”, “bad drug effect”, “stimulated”, “liking”, “happy”, “content”, “talkative”, “open”, “trust”, “feeling close to others”, “anxiety”, “alteration of vision”, “alterations of hearing”, “sounds seem to influence what I see”, “alteration of sense of time”, “the boundaries between myself and my surroundings seem to blur”, “want to be with other people”, and “want to be alone”. Scales are administered before and repeatedly after substance administration and take approximately 2 minutes to fill out. The maximal ratings (Emax, 0-100) and areas under the effect-time curve (AUEC) are defined for each VAS and Emax and AUEC values compared between treatments using analysis of variance. 5-Dimensions of Altered States of Consciousness (5D-ASC): The 5 Dimensions of Altered States of Consciousness (5D-ASC) Scale is a questionnaire containing visual analog scales for 94 items (Studerus et al., 2010). The instrument contains five scales assessing mood, anxiety, derealization, depersonalization, changes in perception, auditory alterations, and reduced vigilance. The scale is well-validated (Studerus et al., 2010) and used internationally to evaluate effects of many other psychoactive substances. The overall psychedelic experience is reflected by the total […] score. Each item of the scale is scored on a 0-100 mm VAS. The attribution of the individual items to the subscales of the 5D-ASC is analyzed according to (Studerus et al., 2010). The 5D-ASC scale is administered once at the end of the session and subjects are instructed to retrospectively rate peak alterations that have been experienced during the study session. Adiective Mood Rating Scale (AMRS): The Adjective Mood Rating Scale (AMRS or EWL60S) is a 60-item Likert scale that allows repeated assessment of mood in 6 dimensions: Activation, inactivation, well-being, anxiety/depressed mood, extra- and introversion, and emotional excitability. The German EWL60S version is used. The AMRS consists of subscales measuring “activation,” “positive mood,” “extraversion,” “introversion,” “inactivation,” and “emotional excitability. The scale has previously been used to evaluate effects of many other psychoactive substances. Emax and AUEC scores will be defined for each subscale and compared between treatments using analysis of variance. The AMRS is administered repeatedly throughout the study session and once 3 days after each session. States of Consciousness Questionnaire (SCQ): In the SCQ, 100-items are rated on a six-point scale. Forty-three items embedded into this questionnaire comprise the Mystical Experience Questionnaire (MEQ) (MacLean et al., 2011) which is sensitive to the effects of psychedelic substances such as LSD. […]
# [4] = test system: healthy subjects; assay: Effects on mood on the Adjective Mood Rating Scale (AMRS); type: in vivo, human; conditions: 125 mg
# Description: as §1, §2
# [5] = test system: healthy subjects; assay: Autonomic effects (blood pressure, heart rate, body temperature); type: in vivo, human; conditions: 125 mg
# Description: as §1
# Autonomic measures: Blood pressure, heart rate, and body temperature are recorded at baseline and repeatedly throughout the session. Blood pressure (systolic and diastolic) and heart rate are measured with an automatic oscillometric device. Body temperature is measured with an ear thermometer. Emax is determined for each of the measures and for each study session. These Emax values are then compared between drug conditions using analysis of variance.
# [6] = test system: healthy subjects; assay: Connectedness subscale of the PES questionnaire; type: in vivo, human; conditions: 125 mg
# [7] = test system: healthy subjects; assay: Clinical cross-over study, overall comparison of the substances; type: in vivo, human; conditions: conclusion over the doses tested
# Description: as §1
# [8] = test system: mice; conditions: compared with R-MDMA; cited from earlier work
# [9] = test system: rhesus monkeys; conditions: cited from earlier work
# [10] = test system: mice; conditions: cited from earlier work
# [11] = test system: animals; conditions: various animal studies; cited from earlier work
# [12] = 75 mg; earlier study; cited from earlier work
SMILES,plasma levels of the active metabolite [1],time of peak plasma level of the active metabolite [1],"VAS “talkative,” “open,” “trust,” and “I feel close to others” [2]",acute mystical-type experiences on the 5D-ASC scale ([3]; 24 subjects),psychedelic effects on the 5D-ASC and the MEQ questionnaires ([3]; compared with placebo (and 125 mg R-MDMA)),effects on the AMRS [4],body temperature [5],heart rate ([5]; versus placebo),"ratings of connectedness, difference between conditions [6]",acute subjective effects and adverse effects [7],onset of interoceptive effects [8],reinforcing properties [9],lethal doses [10],social interaction [11],body temperature [12]
C[C@H](N)Cc1ccc2c(c1)OCO2 [S-MDA],higher,peaked earlier,,,,,,,,,,,,,
"CNC(C)Cc1ccc2c(c1)OCO2 (racemic) [(±)-MDMA, ±3,4-methylenedioxymethamphetamine, reference compound]",,,higher values,comparable effects with no significant differences,comparable and overall greater psychedelic effects,comparable effects,increased similarly; also recorded: increased body temperature only moderately,increase heart rate comparably and more than with placebo,no difference,overall comparable,faster,moderate reinforcing properties,similar,Increased social interaction,did not significantly increase body temperature
